{
  "source": "BigSolDB 2.1",
  "data": [
    {"smiles": "CC(C)CCC[C@@H](C)[C@H]1CC[C@H]2[C@@H]3CC=C4C[C@@H](O)CC[C@]4(C)[C@H]3CC[C@]12C", "values": [
      {"measurement": "solubility (mole fraction)", "setting": "in MIBK, 283.2 K", "result": 0.0101},
      {"measurement": "solubility (mole fraction)", "setting": "in MIBK, 293.2 K", "result": 0.0142},
      {"measurement": "solubility (mole fraction)", "setting": "in MIBK, 303.2 K", "result": 0.0272},
      {"measurement": "solubility (mole fraction)", "setting": "in MIBK, 313.2 K", "result": 0.036},
      {"measurement": "solubility (mole fraction)", "setting": "in MIBK, 323.2 K", "result": 0.0483},
      {"measurement": "solubility (mole fraction)", "setting": "in acetic acid, 283.2 K", "result": 0.00053},
      {"measurement": "solubility (mole fraction)", "setting": "in acetic acid, 293.2 K", "result": 0.0012},
      {"measurement": "solubility (mole fraction)", "setting": "in acetic acid, 303.2 K", "result": 0.00143},
      {"measurement": "solubility (mole fraction)", "setting": "in acetic acid, 313.2 K", "result": 0.00255},
      {"measurement": "solubility (mole fraction)", "setting": "in acetic acid, 323.2 K", "result": 0.00382},
      {"measurement": "solubility (mole fraction)", "setting": "in anisole, 283.2 K", "result": 0.0176},
      {"measurement": "solubility (mole fraction)", "setting": "in anisole, 293.2 K", "result": 0.0205},
      {"measurement": "solubility (mole fraction)", "setting": "in anisole, 303.2 K", "result": 0.024},
      {"measurement": "solubility (mole fraction)", "setting": "in anisole, 313.2 K", "result": 0.0325},
      {"measurement": "solubility (mole fraction)", "setting": "in anisole, 323.2 K", "result": 0.0442},
      {"measurement": "solubility (mole fraction)", "setting": "in ethyl acetate, 283.2 K", "result": 0.00593},
      {"measurement": "solubility (mole fraction)", "setting": "in ethyl acetate, 293.2 K", "result": 0.00952},
      {"measurement": "solubility (mole fraction)", "setting": "in ethyl acetate, 303.2 K", "result": 0.0146},
      {"measurement": "solubility (mole fraction)", "setting": "in ethyl acetate, 313.2 K", "result": 0.0209},
      {"measurement": "solubility (mole fraction)", "setting": "in ethyl acetate, 323.2 K", "result": 0.033},
      {"measurement": "solubility (mole fraction)", "setting": "in methanol, 283.2 K", "result": 0.00021},
      {"measurement": "solubility (mole fraction)", "setting": "in methanol, 293.2 K", "result": 0.00042},
      {"measurement": "solubility (mole fraction)", "setting": "in methanol, 303.2 K", "result": 0.00073},
      {"measurement": "solubility (mole fraction)", "setting": "in methanol, 313.2 K", "result": 0.00105},
      {"measurement": "solubility (mole fraction)", "setting": "in methanol, 323.2 K", "result": 0.00127},
      {"measurement": "solubility (mole fraction)", "setting": "in n-heptane, 283.2 K", "result": 0.00198},
      {"measurement": "solubility (mole fraction)", "setting": "in n-heptane, 293.2 K", "result": 0.00372},
      {"measurement": "solubility (mole fraction)", "setting": "in n-heptane, 303.2 K", "result": 0.00609},
      {"measurement": "solubility (mole fraction)", "setting": "in n-heptane, 313.2 K", "result": 0.00863},
      {"measurement": "solubility (mole fraction)", "setting": "in n-heptane, 323.2 K", "result": 0.0152}
    ]}
  ]
}
